The values that follow come from article PMC6317804, “The integration of pharmacophore-based 3D QSAR modeling and virtual screening in safety profiling: A case study to identify antagonistic activities against adenosine receptor, A2A, using 1,897 known drugs” (PLoS ONE, 2019).

Like-named read-outs stand apart in the source and are kept apart here.

Assay [1] addresses T1, adenosine receptor 2A (A2A) (Homo sapiens, UniProt P29274).
T1 construct: CEREP (Poitiers, France), paid service
Particulars: cited from earlier work; for IC50: S1 Table, compounds given as SMILES, downloaded from ChEMBL; for measured pIC50: training set compound, negative logarithm of IC50.

For assay [2], the target named is T1, adenosine receptor 2A (A2A). Nature of the assay: Functional antagonist assay monitoring cAMP (CEREP).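 As to IC50, cAMP, M: eight-point concentration-response from 0 to 10 µM.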 It is filed as cell-based.
Description: (§1) Competition binding assay using radioactive ligands and functional assay monitoring cAMP were carried out as a paid service provided by CEREP (Poitiers, France). The functional assays monitoring Ca^2+ flux were carried out as a paid service provided by DiscoveRx (Carlsbad, CA).
Assay [3] has the same target. Put plainly: Functional assay monitoring Ca2+ flux (DiscoveRx). Type of assay: cell-based. Details: inhibition: dose or concentration left out as unconfirmed. As to conditions: for inhibition: read-out: IC50, Ca2+, M.
Description: as §1
Assay [4] shares this target. Put plainly: Competition binding assay using radioactive ligands (CEREP).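 As to all read-outs here: compounds screened at a single fixed 10 µM concentration for displacement of a radioligand.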 Details: inhibition: dose or concentration left out as unconfirmed. As to conditions: for inhibition at 10 µM: fixed compound concentration of 10 μM.
Description: as §1
[5] abbreviates: concentration-response up to 10 μM, read-out: IC50, cAMP.

T1 sequence (P29274 whole entry): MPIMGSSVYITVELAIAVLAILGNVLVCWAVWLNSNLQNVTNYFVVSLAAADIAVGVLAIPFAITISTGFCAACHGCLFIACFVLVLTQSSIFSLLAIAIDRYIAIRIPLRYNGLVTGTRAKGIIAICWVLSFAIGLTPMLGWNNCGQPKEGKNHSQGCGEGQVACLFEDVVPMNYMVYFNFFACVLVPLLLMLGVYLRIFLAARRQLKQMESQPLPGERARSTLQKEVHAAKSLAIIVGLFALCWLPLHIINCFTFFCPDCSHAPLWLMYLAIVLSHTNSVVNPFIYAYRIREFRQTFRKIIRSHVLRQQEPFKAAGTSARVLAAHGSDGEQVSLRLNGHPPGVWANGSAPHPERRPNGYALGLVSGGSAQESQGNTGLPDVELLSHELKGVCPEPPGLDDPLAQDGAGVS

As for `CCNc1cc2nc(NCc3cccnc3)nc(C(=O)c3cccs3)c2s1`, in assay [1], the IC50 was 2480 nM.

With `CCOC(=O)Nc1cc(-c2cncc(OC)c2)nc(-n2nc(C)cc2C)n1`, the IC50 in assay [1] was 196 nM.

Regarding `Cc1ccc(C(=O)c2nc(NC(C)c3ccccc3)nc3ccsc23)s1` (centres unmarked), the IC50 in assay [1] was 1080 nM.

As for `Cc1ccc(C(=O)c2nc(NC(C)c3ccccn3)nc3ccsc23)s1` (centres unmarked), the IC50 in assay [1] is 118 nM.

For the compound `Cc1ccc(C(=O)c2nc(NC(C)c3cccnc3)nc3ccsc23)s1` (centres unmarked), the IC50 in assay [1] was 99 nM.

Turning to `CC(=O)Nc1cc(-c2cccc(N3CCC(O)CC3)n2)nc(-n2nc(C)cc2C)n1`, in assay [1], the IC50 is 22 nM.

With `CC(=O)Nc1cc(-c2cncc(O)c2)nc(-n2nc(C)cc2C)n1`, the IC50 in assay [1] is 64 nM.

As to `CCc1ccccc1-n1nc(C)c(-c2ccc3nccnc3c2)c1Nc1ccc(OC)cc1C(=O)O`, the half-inhibitory concentration (IC50) in assay [1] is 50000 nM.

Turning to `CCc1nn(-c2ccccc2C)c(Nc2ccccc2C(=O)O)c1-c1ccc2nccnc2c1`, in assay [1], the concentration for half-maximal inhibition (IC50) was 50000 nM.

For the compound `CN(C)c1cc2nc(NCc3cccnc3)nc(C(=O)c3cccs3)c2s1`, in assay [1], the concentration for half-maximal inhibition (IC50) is 1420 nM.

Turning to `Cc1ccc(C(=O)c2nc(N(C)Cc3cccnc3)nc3ccsc23)s1`, the concentration for half-maximal inhibition (IC50) in assay [1] was 2270 nM.

With `CNc1cc2nc(NCc3cccnc3)nc(C(=O)c3cccs3)c2s1`, the IC50 in assay [1] is 965 nM.

`COC(=O)Nc1cc(-c2cncc(OC)c2)nc(-n2nc(C)cc2C)n1`: the 50% inhibitory concentration (IC50) in assay [1] is 167 nM.

On to `COc1ccc(CCCn2ncc3c2nc(N)n2nc(-c4ccco4)nc32)cc1OC`, for which the IC50 in assay [1] was 20 nM.

On to `COc1ccc(Nc2c(-c3ccc4nccnc4c3)c(C)nn2-c2ccccc2C)c(C(=O)O)c1`, for which the IC50 in assay [1] was 50000 nM.

For `COc1ccc(Nc2c(-c3ccc4nccnc4c3)c(C)nn2-c2ccccc2Cl)c(C(=O)O)c1`, the IC50 in assay [1] was 50000 nM.

For the compound `COc1ccc(C(=O)c2nc(NCc3cccnc3)nc3ccsc23)cc1`, in assay [1], the half-inhibitory concentration (IC50) was 637 nM.

For `COc1cccc(-c2cc(NC(C)=O)nc(-n3nc(C)cc3C)n2)c1F`, the IC50 in assay [1] is 32 nM.

For the compound `C[C@H](Nc1nc(C(=O)N2CCCC2)c2sccc2n1)c1cccnc1`, the IC50 in assay [1] is 468 nM.

Turning to `C[C@@H](Nc1nc(C(=O)N2CCCC2)c2sccc2n1)c1cccnc1`, the IC50 in assay [1] is 6760 nM.

Consider `Cc1ccc(Nc2c(-c3ccc4nccnc4c3)c(C)nn2-c2ccccc2C)c(C(=O)O)c1`, for which, in assay [1], the IC50 is 50000 nM.

`Cc1ccc(C(=O)c2nc(NCc3cccnc3)nc3ccsc23)cc1`: the IC50 in assay [1] is 442 nM.

For the compound `Cc1ccc(C(=O)c2nc(NCCc3ccccn3)nc3ccsc23)s1`, the concentration for half-maximal inhibition (IC50) in assay [1] was 351 nM.

For the compound `Cc1ccc(C(=O)c2nc(NCCc3cccnc3)nc3ccsc23)s1`, in assay [1], the IC50 is 177 nM.

In the case of `Cc1ccc(C(=O)c2nc(NC(=O)c3cccnc3)nc3ccsc23)s1`, the IC50 in assay [1] was 161 nM.

Regarding `Cc1ccccc1-n1nc(C)c(-c2cc(F)c3nccnc3c2)c1Nc1ccccc1C(=O)O`, the IC50 in assay [1] is 50000 nM.

Take `Cc1ccccc1-n1nc(C)c(-c2ccc3nccnc3c2)c1Nc1ccc(Cl)cc1C(=O)O`: the IC50 in assay [1] is 50000 nM.

With `Cc1ccccc1-n1nc(C(F)(F)F)c(-c2ccc3nccnc3c2)c1Nc1ccccc1C(=O)O`, the IC50 in assay [1] is 50000 nM.

For `Cc1ccccc1-n1ncc(-c2ccc3nccnc3c2)c1Nc1ccccc1C(=O)O`, the IC50 in assay [1] was 50000 nM.

On to `CCNc1c2c(nc(NC(=O)Nc3ccc(OC)cc3)n3nc(-c4ccco4)nc23)nn1C`, for which the IC50 in assay [1] is 61 nM.

As to `O=C(c1cccs1)c1nc(NCc2cccnc2)nc2cc(Cl)sc12`, the IC50 in assay [1] is 62 nM.

Take `O=C(c1ccc(Cl)s1)c1nc(NCc2cccnc2)nc2ccsc12`: in assay [1], the half-maximal inhibitory concentration (IC50) is 1540 nM.

As to `Nc1nc2c(cnn2CCCc2ccc(O)cc2)c2nc(-c3ccco3)nn12`, the concentration for half-maximal inhibition (IC50) in assay [1] was 10 nM.

For the compound `Nc1nc2c(cnn2CCc2ccc(OCc3ccccc3)cc2)c2nc(-c3ccco3)nn12`, the 50% inhibitory concentration (IC50) in assay [1] is 90 nM.

Take `Nc1nc2c(cnn2Cc2ccc(OCc3ccccc3)cc2)c2nc(-c3ccco3)nn12`: in assay [1], the IC50 was 500 nM.

As for “5-methoxy-2-((3-methyl-1-phenyl-4-(quinoxalin-6-yl)-1H-pyrazol-5-yl)amino)benzoic acid”, in assay [1], the IC50 was 5500 nM and the “measured pIC50” value was 4.3. The IC50 in assay [1] (listed as COc1ccc(Nc2c(c(C)nn2C3CCCCC3)c4ccc5nccnc5c4)c(c1)C(=O)O) is 50000 nM.

In the case of `N=C(N)NC(=O)c1nc(Cl)c(N)nc1N` [Amiloride], the inhibition in assay [2] (read-out: IC50, cAMP, M) is less than 50%; in assay [3], less than 50%; in assay [4] (read-out: %inhibition, binding), 53%.

On to `Cc1cc2c(OCC(CNC(C)(C)C)OC(=O)c3ccccc3)cccc2[nH]1` (centres unmarked) [Bopindolol], for which, in assay [2] (setting [5]), the inhibition at up to 10 µM was less than 50%. The inhibition in assay [3] was less than 50%. In addition, the inhibition at 10 µM in assay [4] is less than 50%.

With `CC(C)C[C@H](NC(=O)[C@H](Cc1ccccc1)NC(=O)c1cnccn1)B(O)O` [Bortezomib], the inhibition at up to 10 µM in assay [2] (setting [5]) was less than 50%. Further, the inhibition in assay [3] was less than 50%. Also, the inhibition at 10 µM in assay [4] is less than 50%.

With `COc1ccccc1Oc1c(NS(=O)(=O)c2ccc(C(C)(C)C)cc2)nc(-c2ncccn2)nc1OCCO` [Bosentan], the inhibition at 10 µM in assay [2] (setting [5]) was less than 50%; in assay [3] (concentration-response up to 10 μM, read-out: IC50, Ca2+), less than 50%; in assay [4], less than 50%.

In the case of `CC(C)NC(=O)c1nc(NCc2cccnc2)nc2ccsc12` [CC(C)NC(=O)c1nc(NCc2cccnc2)nc3ccsc13, N-isopropyl-2-((pyridin-3-ylmethyl)amino)thieno[3,2-d]pyrimidine-4-carboxamide], the “measured pIC50” value in assay [1] is 5.6.

As to `CC(Nc1nc(C(=O)N2CCCC2)c2sccc2n1)c1cccnc1` (centres unmarked) [CC(Nc1nc(C(=O)N2CCCC2)c3sccc3n1)c4cccnc4], the IC50 in assay [1] is 2350 nM.

With `CCCSc1c2c(nc(N)n3nc(-c4ccco4)nc23)nn1C` [CCCSc1c2c(nc(N)n3nc(nc23)c4occc4)nn1C], the IC50 in assay [1] is 14.8 nM.

With `CCNC(=O)c1nc(NCc2cccnc2)nc2ccsc12` [CCNC(=O)c1nc(NCc2cccnc2)nc3ccsc13], the IC50 in assay [1] is 2520 nM.

With `CCNc1nc(C(=O)c2ccc(C)s2)c2sccc2n1` [CCNc1nc(C(=O)c2ccc(C)s2)c3sccc3n1], in assay [1], the half-inhibitory concentration (IC50) was 126 nM.

Consider `CCc1nc(C(=O)c2ccc(C)s2)c2sccc2n1` [CCc1nc(C(=O)c2ccc(C)s2)c3sccc3n1], for which, in assay [1], the IC50 is 3850 nM.

`CSc1c2c(nc(N)n3nc(-c4ccco4)nc23)nn1C` [CSc1c2c(nc(N)n3nc(nc23)c4occc4)nn1C]: the IC50 in assay [1] is 6.1 nM.

As for `C=CCN1C[C@H](C(=O)N(CCCN(C)C)C(=O)NCC)C[C@@H]2c3cccc4[nH]cc(c34)C[C@H]21` [Cabergoline], the inhibition at up to 10 µM in assay [2] (setting [5]) is less than 50%. In addition, the inhibition in assay [3] is less than 50%. In addition, in assay [4], the inhibition at 10 µM was less than 50%.

Regarding `Cc1nc(C(=O)c2ccc(C)s2)c2sccc2n1` [Cc1ccc(s1)C(=O)c2nc(C)nc3ccsc23], the IC50 in assay [1] was 7850 nM.

Consider `Cc1ccc(C(=O)c2nc(N)nc3ccsc23)s1` [Cc1ccc(s1)C(=O)c2nc(N)nc3ccsc23], for which, in assay [1], the IC50 was 220 nM.

As for `Cc1ccc(C(=O)c2nc(NCC3CCCCC3)nc3ccsc23)s1` [Cc1ccc(s1)C(=O)c2nc(NCC3CCCCC3)nc4ccsc24], the 50% inhibitory concentration (IC50) in assay [1] is 10000 nM; in assay [1] (listed as Cc1ccc(s1)C(=O)c2nc(NCc3ccccc3)nc4ccsc24) it was 7150 nM.

As for `Cc1ccc(C(=O)c2nc(NCc3ccccn3)nc3ccsc23)s1` [Cc1ccc(s1)C(=O)c2nc(NCc3ccccn3)nc4ccsc24], in assay [1], the IC50 is 186 nM.

With `Cc1ccc(C(=O)c2nc(NCc3cccnc3)nc3ccsc23)s1` [Cc1ccc(s1)C(=O)c2nc(NCc3cccnc3)nc4ccsc24], in assay [1], the IC50 is 990 nM.

For the compound `Cc1ccc(C(=O)c2nc(NCc3ccncn3)nc3ccsc23)s1` [Cc1ccc(s1)C(=O)c2nc(NCc3ccncn3)nc4ccsc24], in assay [1], the IC50 was 116 nM and the “measured pIC50” value is given as 6.9.

With `Cc1ccc(C(=O)c2ncnc3ccsc23)s1` [Cc1ccc(s1)C(=O)c2ncnc3ccsc23], the IC50 in assay [1] was 6680 nM.

In the case of `Cc1ccc(C(=O)c2nc(NCc3cccnc3)nc3ccsc23)o1` [Cc1oc(cc1)C(=O)c2nc(NCc3cccnc3)nc4ccsc24], in assay [1], the half-maximal inhibitory concentration (IC50) was 1250 nM.

`Nc1cc2nc(NCc3cccnc3)nc(C(=O)c3cccs3)c2s1` [Nc1cc2nc(NCc3cccnc3)nc(C(=O)c4cccs4)c2s1]: in assay [1], the IC50 was 10000 nM.

In the case of `O=C(c1nc(NCc2cccnc2)nc2ccsc12)N1CCCC1` [O=C(N1CCCC1)c2nc(NCc3cccnc3)nc4ccsc24], in assay [1], the IC50 is 6140 nM.

Consider `O=C(NC1CC1)c1nc(NCc2cccnc2)nc2ccsc12` [O=C(NC1CC1)c2nc(NCc3cccnc3)nc4ccsc24], for which the IC50 in assay [1] is 710 nM.

Turning to `O=C(c1ccccc1)c1nc(NCc2cccnc2)nc2ccsc12` [O=C(c1ccccc1)c2nc(NCc3cccnc3)nc4ccsc24], the IC50 in assay [1] was 1620 nM.

For the compound `O=C(c1cccnc1)c1nc(NCc2cccnc2)nc2ccsc12` [O=C(c1cccnc1)c2nc(NCc3cccnc3)nc4ccsc24], the IC50 in assay [1] is 1170 nM.

Consider `O=C(c1cccs1)c1nc(NCc2cccnc2)nc2ccsc12` [O=C(c1cccs1)c2nc(NCc3cccnc3)nc4ccsc24], for which the half-maximal inhibitory concentration (IC50) in assay [1] is 51 nM.

As for `O=C(c1ccncc1)c1nc(NCc2cccnc2)nc2ccsc12` [O=C(c1ccncc1)c2nc(NCc3cccnc3)nc4ccsc24], the IC50 in assay [1] is 1940 nM.

In the case of `O=C(c1ccsc1)c1nc(NCc2cccnc2)nc2ccsc12` [O=C(c1ccsc1)c2nc(NCc3cccnc3)nc4ccsc24], the IC50 in assay [1] was 405 nM.

For `O=C(c1cncs1)c1nc(NCc2cccnc2)nc2ccsc12` [O=C(c1cncs1)c2nc(NCc3cccnc3)nc4ccsc24], in assay [1], the half-maximal inhibitory concentration (IC50) was 1720 nM.

Consider `O=C(c1nccs1)c1nc(NCc2cccnc2)nc2ccsc12` [O=C(c1nccs1)c2nc(NCc3cccnc3)nc4ccsc24], for which the IC50 in assay [1] was 732 nM.
